US6342213B1, “Methods for treating non-suturable wounds by use of cyanoacrylate adhesives” (MedLogic Global Corporation, priority 1992, dated 2002)

Key:
human skin tissue = assay: Bonding of human skin tissue, histotoxicity/cytotoxicity
[1] = used as suture supplements or internally; site of application; cited from earlier work

**Q.** Which results are given for `C=C(C#N)C(=O)OCCCC` [n-butyl cyanoacrylate, n-butyl-2-cyanoacrylate]?
**A.** Histotoxicity or cytotoxicity on bonding human skin tissue (human skin tissue): without causing histoxicity or cytotoxicity; Time after application at which polymeric residue was still observed by histological examination [1]: ≤ 12 months
